Laboratory results published in patent US11413278B2, “Compounds and methods for promoting stress resistance” (priority 2015, dated 2022).
“Also recorded” adds a separate entry of the source. Read-outs that look alike come from different tables or passages of the source.

What was measured:
[1] = system: WI-38 cells; assay: Propidium iodide (PI) cell-death imaging upon H2O2 stress; assay type: cell-based, human; conditions: for Assay 7: H2O2-resistant, at 10 uM, validated by propidium iodide (PI) cell-death imaging: w/H2O2, 3 hrs/4 hrs/5 hrs, YES/NO; for cytotoxicity at 10 µM: Homo sapiens, WI-38
[2] = system: human dermal fibroblast (HDF) primary cells; assay: H2O2-resistance in primary human dermal fibroblasts; assay type: cell-based; conditions: for Assay 6: H2O2-resistant, at 10 uM, human dermal fibroblast (HDF) primary cells: YES/NO; for fold induction at 10 µM: Homo sapiens
[3] = system: FOXO3; assay: qPCR analysis of FOXO3-regulated genes; assay type: cell-based, human; conditions: for K = Sestrin induction: score; for fold induction at 10 µM: Homo sapiens
Procedure, shortened: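 WI-38 cells treated with compound at 10 μM for 24 h, followed by Cells-to-Ct RT-qPCR of FOXO3 target genes normalised to B2M, PPIA and GAPDH. FOXO3 or NRF2 dependence tested by prior 10 nM siRNA knockdown (36 h transfection, compound added ~24 h after replating).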

[4] = system: C. elegans; assay type: in vivo, Caenorhabditis elegans
Procedure, shortened: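 Worms treated in liquid with compounds in 96-well plates (4 wells each, FUdR to block progeny, 0.2% DMSO controls); H2O2 at 500 μM final added on day 4 of adulthood and viability scored daily.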

[5] = Summary score for characterization of 38 core set hits; conditions: for D = Triple resistant: 2-point score, multiplex resistance (cadmium, MMS, H2O2); for C = H2O2- & Cd-resistant: score, resistance to both H2O2 and cadmium
Procedure, shortened: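 Scoring awards 2 points per prominent longevity phenotype: resistance to multiple stresses, activation of FOXO3 and/or NRF2, reduced mTOR. Molecules with apparent DNA-damaging activity or cell toxicity in cultured human cells receive a negative point.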

[6] = system: WI-38 cells; conditions: for Assay 1: H2O2-resistant: YES/NO, if NO, possibly due to repeated freezing/thawing of stocks
[7] = 10 μM, 24 hrs, WI-38 cells, qPCR, normalized to B2M, n = 4
[8] = WI-38 cells, 10 μM, 24 hrs, n=4, qPCR normalized by B2M
[9] = fold change, qPCR, WI-38 cells, 10 μM, 24 hrs
[10] = qPCR, WI-38 cells, 10 μM, n=4, 24 hrs, normalized by B2M
[11] = WI-38 cells, 10 μM, (*) = compromised ability to protect cells from H2O2, could be due to stability issue
[12] = WI-38 cells, 10 uM, normalized ATP measurement
[13] = asterisks indicate the loss of the ability to protect cells from H2O2 over time
[14] = derived from dose response curves, 0.6-20 uM, H2O2-resistance of WI-38 cells
[15] = read-out: Est. ED50, dose response 0.6-20 μM, H2O2-resistance

## COc1cc2c(no[n+]2[O-])n2nnnc12 [O11]
[1]; 10 uM
  Assay 7: H2O2-resistant, at 10 uM, validated by propidium iodide (PI) cell-death imaging: YES
[1]; H2O2 3 hrs, 10 uM, n = 6, negative control 5.44% ± 0.79%
  Percentage of propidium iodide-positive dead cells (under H2O2 stress treatment), 3 hrs: 2.19% ± 0.35%,
[1]; H2O2 4 hrs, 10 uM, n = 6, negative control 16.81% ± 1.42%
  Percentage of propidium iodide-positive dead cells (under H2O2 stress treatment), 4 hrs: 2.80% ± 0.49%,
[1]; H2O2 5 hrs, 10 uM, n = 6, negative control 22.50% ± 1.53%
  Percentage of propidium iodide-positive dead cells (under H2O2 stress treatment), 5 hrs: 2.90% ± 0.70%,
[1]; pre-treatment at 10 uM, 3.5 hours of H2O2, DMSO control 27.4% ± 6.5%, */**/*** = reduced by one/two/three standard deviations
  Percentage of propidium iodide-positive dead cells (under H2O2 stress treatment), at 10 uM: 26.5%
[2]; Experiment 1, HDF cells
  Experiment 1, HDF cells (under H2O2 stress treatment), at 10 uM (fold change): 16.57 fold change
[2]; Experiment 2, HDF cells
  Experiment 2, HDF cells (under H2O2 stress treatment), at 10 uM (fold change): 55.68 fold change
[2]
  Assay 6: H2O2-resistant, at 10 uM, human dermal fibroblast (HDF) primary cells: YES
[3]; 10 μM, 24 hrs, WI-38
  Induction of at least two of five FOXO3-regulated genes (SOD2, GADD45A, CAT, DDB1, TXNIP): significant induction; also recorded: significant, induction; also recorded: induce FOXO3-regulated genes
[3]; [7]
  CAT expression, normalized fold change (FOXO3-regulated gene): CAT 1.41, fold
  DDB1 expression, normalized fold change (FOXO3-regulated gene): DDB1 1.31, fold
  SESN1 expression, normalized fold change (FOXO3-regulated gene): SESN1 1.77, fold
  TXNIP expression, normalized fold change (FOXO3-regulated gene): TXNIP 1.35, fold
[3]; 2-point score
  E = Potential FOXO3 Activation: 0
[3]; Assay 10(m), at 10 uM, qPCR
  Induction of FOXO3-regulated genes: CAT normalized fold-change: CAT 1.41, fold-change
  Induction of FOXO3-regulated genes: DDB1 normalized fold-change: DDB1 1.31, fold-change
  Induction of FOXO3-regulated genes: SESN1 normalized fold-change: SESN1 1.77, fold-change
  Induction of FOXO3-regulated genes: TXNIP normalized fold-change: TXNIP 1.35, fold-change
[3]; [8]
  DDB1 Normalized fold change: 1.308 fold change
  GADD45A Normalized fold change: 1.431 fold change
  SESN1 Normalized fold change: 1.773 fold change
[3]; [9]
  Summary of effects on FOXO3-regulated genes: CAT: CAT 1.41,
  Summary of effects on FOXO3-regulated genes: DDB1: DDB1 1.31,
  Summary of effects on FOXO3-regulated genes: SESN1: SESN1 1.77,
  Summary of effects on FOXO3-regulated genes: TXNIP: TXNIP 1.35,
[3]; [10]
  CAT Normalized fold change: 1.410
  SOD2 Normalized fold change: 1.143
  TXNIP Normalized fold change: 1.346
[3]
  K = Sestrin induction: 1
[3]; summary score
  E = Potential FOXO3 Activation: 0
[4]; 60 μM, in liquid, wild type, with FuDR
  H2O2-resistance assay, 1st experiment: YES;
[4]; score
  N = H2O2-resistance in woms: 0
[4]; summary score
  L = H2O2-resistance in worms: 0
[5]
  D = Triple resistant: 0
  C = H2O2- & Cd-resistant: 1
[5]; sum of columns Q and R
  S = Sum of Negative scores: 1
[6]; 10 uM, 24 h, then 700 μM H2O2 3 h, normalized to DMSO
  Screen 1: Screening, at 10 uM (viability assay by ATP measurement, normalized fold-change shown, >=2.5): 3.42 fold-change
[6]; 10 uM, H2O2 stress
  Screen 2: Dose response, at 10 uM (viability assay by ATP measurement, normalized fold-change shown, >=1.5): 6.71 fold-change
[6]; 20 uM, H2O2 stress
  Screen 3: Dose response, at 20 uM (viability assay by ATP measurement, normalized fold-change shown): 3.00 fold-change
[6]; Exp. 1, WI-38 cells, 10 uM, normalized ATP measurement (Table 12)
  Exp. 1, under H2O2 stress treatment, at 10 uM (fold change): 3.53 fold change
[6]; Exp. 2, WI-38 cells, 10 uM, normalized ATP measurement (Table 12)
  Exp. 2, under H2O2 stress treatment, at 10 uM (fold change): 2.10 fold change
[6]; Experiment 1, WI-38 cells, 10 uM (run along with HDF cells)
  Experiment 1, WI-38 cells (under H2O2 stress treatment), at 10 uM (fold change): 2.52 fold change
[6]; Experiment 2, WI-38 cells, 10 uM (run along with HDF cells)
  Experiment 2, WI-38 cells (under H2O2 stress treatment), at 10 uM (fold change): 28.12 fold change
[6]; H2O2-resistance of WI-38 cells, cherry-picked retest, 10 uM
  Dose response retest, at 10 uM (fold change): 6.71 fold change
[6]; H2O2-resistance of WI-38 cells, cherry-picked retest, 20 uM
  Dose response retest, at 20 uM (fold change): 3.00 fold change
[6]; H2O2-resistance of WI-38 cells, library screening, 10 uM
  Library Screening, at 10 uM (fold change): 3.42 fold change
[6]; [11]
  H2O2-resistant: YES
[6]; WI-38 cells, H2O2 3 hrs, 10 uM, normalized ATP measurement
  H2O2 stress treatment (3 hrs), at 10 uM (fold change): 7.18 fold change
[6]; [12]
  No H2O2 stress treatment, at 10 uM (fold change): 0.75 fold change
[6]
  Assay 1: H2O2-resistant: YES
[6]; [13]
  H2O2-resistant: YES
[6]; [14]
  EC50: 4.4 µM
[6]; [15]
  EC50: 4.4 µM

## CC1C(=O)C(C)C(c2cc(Cl)ccc2O)NC1c1cc(Cl)ccc1O (stereo not shown) [O6]
[1]; 10 uM
  Assay 7: H2O2-resistant, at 10 uM, validated by propidium iodide (PI) cell-death imaging: YES
[1]; H2O2 3 hrs, 10 uM, n = 6, negative control 5.44% ± 0.79%, read-out: Percentage of propidium iodide-positive dead cells (under H2O2 stress treatment), 3 hrs
  cytotoxicity at 10 µM: 0.8%
[1]; H2O2 4 hrs, 10 uM, n = 6, negative control 16.81% ± 1.42%, read-out: Percentage of propidium iodide-positive dead cells (under H2O2 stress treatment), 4 hrs
  cytotoxicity at 10 µM: 4.92%
[1]; H2O2 5 hrs, 10 uM, n = 6, negative control 22.50% ± 1.53%, read-out: Percentage of propidium iodide-positive dead cells (under H2O2 stress treatment), 5 hrs
  cytotoxicity at 10 µM: 9.82%
[1]; pre-treatment at 10 uM, 3.5 hours of H2O2, DMSO control 27.4% ± 6.5%, */**/*** = reduced by one/two/three standard deviations, read-out: Percentage of propidium iodide-positive dead cells (under H2O2 stress treatment), at 10 uM
  cytotoxicity at 10 µM: 16.8%
[2]; Experiment 1, HDF cells, read-out: Experiment 1, HDF cells (under H2O2 stress treatment), at 10 uM (fold change)
  fold induction at 10 µM: 285
[2]; Experiment 2, HDF cells, read-out: Experiment 2, HDF cells (under H2O2 stress treatment), at 10 uM (fold change)
  fold induction at 10 µM: 22.2
[2]
  Assay 6: H2O2-resistant, at 10 uM, human dermal fibroblast (HDF) primary cells: YES
[3]; 2-point score
  E = Potential FOXO3 Activation: 0
[3]; WI-38 cells, 10 μM, 24 hrs, n=4, qPCR normalized by B2M, read-out: DDB1 Normalized fold change
  fold induction at 10 µM: 0.988
[3]; WI-38 cells, 10 μM, 24 hrs, n=4, qPCR normalized by B2M, read-out: GADD45A Normalized fold change
  fold induction at 10 µM: 0.881
[3]; WI-38 cells, 10 μM, 24 hrs, n=4, qPCR normalized by B2M, read-out: SESN1 Normalized fold change
  fold induction at 10 µM: 1.06
[3]; qPCR, WI-38 cells, 10 μM, n=4, 24 hrs, normalized by B2M, read-out: CAT Normalized fold change
  fold induction at 10 µM: 0.919
[3]; qPCR, WI-38 cells, 10 μM, n=4, 24 hrs, normalized by B2M, read-out: SOD2 Normalized fold change
  fold induction at 10 µM: 0.932
[3]; qPCR, WI-38 cells, 10 μM, n=4, 24 hrs, normalized by B2M, read-out: TXNIP Normalized fold change
  fold induction at 10 µM: 1.01
[3]
  K = Sestrin induction: 0
[3]; summary score
  E = Potential FOXO3 Activation: 0
[4]; in vivo
  H2O2-resistance assay, 1st experiment: YES;
  L = H2O2-resistance in worms: 0
  N = H2O2-resistance in woms: 0
[5]
  D = Triple resistant: 0
  C = H2O2- & Cd-resistant: 1
[5]; human
  S = Sum of Negative scores: 0
[6]; [11]
  H2O2-resistant: YES
[6]; [12]
  No H2O2 stress treatment, at 10 uM (fold change): 1.07 fold change
[6]
  Assay 1: H2O2-resistant: YES
[6]; [13]
  H2O2-resistant: YES
[6]; [14]
  EC50: 9.8 µM
[6]; [15]
  EC50: 9.8 µM
